From patent publication US20100151486A1, “OSTEOPONTIN FUNCTIONAL EPITOPES, MONOCLONAL ANTIBODIES AGAINST THE EPITOPES AND USES THEREOF” (SHANGHAI NATIONAL ENGINEERING RESEARCH CENTER OF A, priority 2007, published 2010)

Columns and labels:
[1] = system: human vascular endothelial cell (HUVEC); test: HUVEC proliferation by 3H-TdR incorporation; assay type: cell-based; details: M200+1% BSA+OPN; 24 hours
Experimental: HUVEC cell proliferation was measured by the ^3H-TdR incorporation method to determine the protective effect of OPN on cell survival and the inhibitory effect of the anti-OPN antibodies on the OPN protection. Each well of a 96-well plate was inoculated with 2×10^4 HUVECs and cultured in a complete medium for 24 hours. The cells were then treated as following for 24 hours: […]
iv. M200+1% BSA+OPN+murine anti-OPN antibody 1A12 v. M200+1% , BSA+OPN+human-murine chimeric anti-OPN antibody c1A12 vi. M200+1% BSA+OPN+humanized anti-OPN antibody h1A12 vii. M200+1% BSA+OPN+irrelevant antibody
24 hours later, 1 uCi/well ^3H-thymidine was added and, after being incubated at 37° C. for 6 hours, washed once with PBS. The plate was treated with ice-cold 10% trichloroacetic acid/H2O at 4° C. for 10 min, and then washed for two times with, ice-cold ddH2O. Cytolysis was conducted by adding into each well 0.1 ml of 0.5 N NaOH, 0.5% SDS at room temperature for 10 min. After adding 0.2 ml of 0.5 N HCl and mixing, the cells were collected using a multiple cell collector.

[2] = system: chicken embryo chorioallantoic membrane (CAM); test: Chicken embryo chorioallantoic membrane (CAM) angiogenesis assay; assay type: in vivo; details: human OPN 250 ng; P<0.01
Experimental: The Leghorn chicken embryos were purchased from the farm with a fertilization rate of >90%. The 8-day old chicken embryos were selected. After sterilization, a small hole was drilled in the center of the top air chamber of the embryo with a lancet, the surrounding shell with the inner membrane was removed with caution to create an opening of 1 cm×1 cm. Then the following analytes/gelatin sponge were added to the CAM surface: i) PBS; ii) HOPN; iii) human OPN (250 ng); iv) human OPN (250 ng)+the irrelevant antibody as control (1 μg); v) human OPN (250 ng)+the murine anti-OPN antibody 1A12 (1 μg); vi) human OPN (250 ng)+the murine-human chimeric anti-OPN antibody c1A12 (1 μg); vii) human OPN (250 ng)+the humanized anti-OPN antibody h1A1.2 (1 μg).
The analytes/gelatin sponge were added to the CAM surface, which was far away from the already-formed dense vascular network. […] The number of vessels within an area edging 2 mm from the edges of the carrier slide was counted under a dissecting microscope to study the angiogenesis using the “vascular index” (Ribatti, D., B. Nico, A. Vacca et al., The gelatin sponge-chorioallantoic membrane assay. Nat Protoc, 2006, 1 (1): 85-91). The number of vessel was counted at the same magnification under the dissecting microscope. The result in each sample group was expressed as “mean±standard deviation (x±S)”. […]

[3] = biological target: T1, human osteopontin (human OPN protein) (human, UniProt P10451 17-314, limits assumed); test: Western blot on purified recombinant OPN
T1 construct: The isoform follows from the 963 bp PCR fragment and is not otherwise stated; also called hOPN

[4] = biological target: T1, human osteopontin (human OPN protein); test: ELISA, plate coated with OPN 2 ug/ml, COS-1 supernatant, HRP-rabbit anti-human IgG
Experimental: An ELISA plate was coated with 2 ug/ml OPN. The binding activity of the humanized antibody obtained from the transfection was detected by ELISA. […] The amino acid sequences of the h1A12HBb's and the h1A12Lb's variable regions were shown in FIG. 4, SEQ ID NO: 18 and SEQ ID NO: 19 show the nucleotide sequence and the amino acid sequence of h1A12Hb's variable region respectively. SEQ ID NO: 20 and SEQ ID NO: 21 show the nucleotide sequence and the amino acid sequence of h1A12Lb's variable region respectively. The genes of the humanized antibody's VH and VL (h1A12VHb/h1A12VLb) were synthesized respectively. […] Then, expression vectors of the light and the heavy chain were used to co-transfect the COS-1 cells. The antibody's antigen-binding activity was determined by ELISA. Specifically, an ELISA plate was coated with OPN protein (2 ug/ml) coated at 4° C. overnight, and was blocked with 2% BSA-PBS for 2 h at 37° C. […] HRP-rabbit anti-human IgG was added into the plate for binding reaction (incubated at 37° C. for 1 h).

T1 sequence (P10451 17-314 limits assumed): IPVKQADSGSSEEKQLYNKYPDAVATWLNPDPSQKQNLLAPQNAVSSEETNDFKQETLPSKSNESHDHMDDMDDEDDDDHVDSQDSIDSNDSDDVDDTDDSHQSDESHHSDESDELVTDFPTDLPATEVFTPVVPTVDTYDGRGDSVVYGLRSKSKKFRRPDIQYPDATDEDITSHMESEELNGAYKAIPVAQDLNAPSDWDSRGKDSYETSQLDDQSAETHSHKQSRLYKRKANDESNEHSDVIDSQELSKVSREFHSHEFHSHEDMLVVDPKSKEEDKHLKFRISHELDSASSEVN

Question: For “OPN: human osteopontin protein expressed in Pichia yeast and purified (Example 3)”, which “3H-TdR incorporation relative to the 1% BSA treatment group” value [1] is on record?
Answer: The value was 3.08±0.64 times.

Question: And the “angiogenesis in the chicken embryo's CAM in comparison with PBS” value [2]?
Answer: Its value is “significantly enhance”.

B1: murine anti-human OPN monoclonal antibody 1A12 (antibody, V domains shown)
VH: QVQLEQSGPELVKPGASVKMSCKSSGYTFTTYVMHWVKQKPGQGLEWIGYINPYNDGSKYNEKFKGKATLTSDKSSNTAYMELSSLTSEDSAVYYCASHYGGSPAYWGQGTLVTVSA
VL: DILMTQTPLSLPVSLGDQASISCRSSQSLVHSNGNTYLHWYLQKPGQSPKLLIYKVSNRFSGVPDRFSGSGSGTDFTLKISRVEAEDLGVYFCSQSTHVPWTFGGGTKLEIKR
notes: Hybridoma antibody purified from mouse ascites on protein A. Mouse constant regions; also called mouse anti-hOPN mAb 1A12; anti-OPN mAb 1A12
Question: Does B1 bind [3]?
Answer: Result: binds

B2: human-mouse chimeric anti-hOPN antibody c1A12 (antibody, human IgG1, kappa, V domains shown)
VH: B1 VH
VL: B1 VL
notes: Tested as COS-1 supernatant in the ELISA and as CHO-purified antibody in the cell assays; also called chimeric antibody c1A12
Question: Does B2 bind [4]?
Answer: Result: binds
